PubChem BioAssay (NCI)
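Compound exposure: 48 hours, 5 concentrations, 96-well plates. TGI is the concentration that stops growth completely.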

What was measured:
Experiment in all cases: DTP human tumour cell line panel, 48 h
[1] = system: CAKI-1 renal
[2] = system: SNB-75 CNS
[3] = system: SK-MEL-5 melanoma
[4] = system: EKVX NSCLC
[5] = system: SF-295 CNS
[6] = system: BT-549 breast
[7] = system: OVCAR-8 ovarian
[8] = system: HOP-92 NSCLC
[9] = system: ACHN renal
[10] = system: SK-OV-3 ovarian
[11] = system: 786-0 renal
[12] = system: UACC-62 melanoma
[13] = system: RXF 393 renal
[14] = system: MCF7 breast
[15] = system: HOP-62 NSCLC
[16] = system: SF-268 CNS
[17] = system: MOLT-4 leukemia
[18] = system: TK-10 renal
[19] = system: HT29 colon
[20] = system: T-47D breast
[21] = system: HCT-116 colon
[22] = system: HCC-2998 colon
[23] = system: SN12C renal
[24] = system: A498 renal
[25] = system: MALME-3M melanoma
[26] = system: SK-MEL-2 melanoma
[27] = system: PC-3 prostate
[28] = system: MDA-MB-231 breast
[29] = system: UACC-257 melanoma
[30] = system: UO-31 renal
[31] = system: SR leukemia
[32] = system: NCI-H522 lung
[33] = system: SK-MEL-28 melanoma
[34] = system: OVCAR-3 ovarian
[35] = system: NCI-H460 lung
[36] = system: MDA-N
[37] = system: A549 NSCLC
[38] = system: NCI-H23 lung
[39] = system: SW-620 colon
[40] = system: LOX IMVI melanoma
[41] = system: HL-60(TB) leukemia
[42] = system: HCT-15 colon
[43] = system: M14 melanoma
[44] = system: HS 578T breast
[45] = system: IGROV1 ovarian
[46] = system: U251 CNS
[47] = system: RPMI-8226 leukemia
[48] = system: SF-539 CNS
[49] = system: MDA-MB-435
[50] = system: NCI-H226 lung
[51] = system: KM12 colon
[52] = system: NCI/ADR-RES ovarian
[53] = system: DU-145 prostate
[54] = system: SNB-19 CNS
[55] = system: OVCAR-5 ovarian
[56] = system: CCRF-CEM leukemia
[57] = system: COLO 205 colon
[58] = system: OVCAR-4 ovarian
[59] = system: K-562 leukemia

Measured: TGI

CC(=O)NNc1nc(C)c(C(/C=C/c2ccc(NC(C)=O)cc2)=N/NS(=O)(=O)c2ccc(C)cc2)s1
not listed: [59]
> 100 µM: all other assays above

Cc1cc2c(=O)[nH]nc(N)c2c(N)n1
not listed: [2] | [34] | [48]
> 100 µM: all other assays above
